Results: patent US9045426B2, “Method for producing 1,2-dihydropyridine-2-one compound” (EISAI R&D MANAGEMENT CO., LTD., priority 2004, dated 2015)

Experiments:
[1] = test system: AMPA (alpha -amino-3-hydroxy-5-methyl-4-isoxazolepropionic acid) receptor; conditions: cited from earlier work
[2] = Physical stability in mixing operation in the presence of water or water-ethanol (1:1) mixed solution; format: physicochemical; conditions: room temperature, then dried at about 60° C.
Procedure: Physical Stability in Mixing-Operation in the Presence of Water or Water-Ethanol (1:1) Mixed Solution
About 150 mg of respective crystals are placed in an agate mortar, and the mixing operation is carried out at room temperature for a few minutes while the dropwise addition of water (or water-ethanol (1:1) mixed solution) continues.
Subsequently, respective crystals are dried at about 60° C. for 2 to 3 hours.

[3] = Chargeability (static potential of the powder after stirring); format: physicochemical; conditions: about 1 g stirred for 30 minutes with fluoroplastic-coated stirring bar
Procedure: About 1 g of respective compounds is weighed into a weighing bottle (diameter of 35 mm). A stifling bar [fluoroplastic (tetrafluoroethylene resin) coating; 20 mm] is placed in the bottle and after the lid is in place, the powders are stirred for 30 minutes. The lid is opened at the same time that stirring is stopped; and the static potential of the powder is measured using a static potential measuring instrument.
STATIRON-DZ3 manufactured by Shishido Electrostatic, Ltd.

[4] = Minimum ignition energy (blown-up type dust explosion test); format: physicochemical; conditions: 24° C., humidity 49%, dust concentration 1250 g/m^3
Description: (§1) Minimum Ignition Energy and Lower Explosion Concentration Limit
(§2) An appropriate amount of Hydrate crystal corresponding to a concentration was uniformly put on sample dish of blown-up type dust explosion test apparatus. 50 kPa of air was compressed in a 1.3 L pressure tank, and the air was introduced into a glass cylinder by opening of a solenoid operated valve to form dust clouds. A discharge electrode was supplied with energy after 0.1 seconds after the opening of the solenoid operated valve. The criterion of ignition is an arrival of flame at an ignition mark set 100 mm above the discharge electrode.
(3) Measurement Conditions for Minimum Ignition Energy
(§3) Temperature of the measurement room: 24° C.
(§4) Popping pressure of compressed air: 50 kPa
(§5) Ignition start time: 0.1 sec
Repetition of ignition test: 10 times
(§6) Blown-up type dust explosion test apparatus (Environmental Technology Co., Ltd. DES -10)

[5] = Influence of change in temperature on Hydrate crystal (powder X-ray diffraction); format: physicochemical; conditions: 30 to 100 to 30° C.; returns to Hydrate when the temperature was lowered
Procedure: (§7) Influence of Change in Temperature and Humidity on Hydrate Crystal
(§8) Rigaku X-ray DTA system: RINT-2000 manufactured by Rigaku Corporation
(§9) Crystals obtained in Example 5 (Hydrate crystal) were ground in a mortar and then sampled on a 13-mm diameter glass plate. Measurement was carried out under the conditions below.
Scanning range (2θ): 5 to 40°
Measurement temperature was changed as follows in turn and powder X-ray diffraction patterns were measured at the respective temperatures in sequence: 30→40→50→60→70→80→100→70→60→50→40 and 30° C.

[6] = Influence of change in humidity on Hydrate crystal (powder X-ray diffraction); format: physicochemical; conditions: 4 to 90 to 5% RH
Procedure: as §7, §8, §9
Measurement humidity was changed as follows in turn and powder X-ray diffraction patterns were measured at the respective humidities in sequence: […]

[7] = Lower explosion concentration limit (blown-up type dust explosion test); format: physicochemical; conditions: 24° C., humidity 49%, ignition discharge energy 10 J
Description: as §1, §2
(2) Measurement Conditions for Lower Explosion Concentration Limit
as §3, §4, §5
Repetition of ignition test: 5 times
Ignition discharge energy: 10 J
as §6

## N#Cc1ccccc1-c1cc(-c2ccccn2)cn(-c2ccccc2)c1=O [Compound (A), 3-(2-cyanophenyl)-5-(2-pyridyl)-1-phenyl-1,2-dihydropyridin-2-one]
[1]
  antagonistic action against AMPA receptor: significant antagonistic action

## N#Cc1ccccc1-c1cc(-c2ccccn2)cn(-c2ccccc2)c1=O [Reference Example 1, 3-(2-cyanophenyl)-5-(2-pyridyl)-1-phenyl-1,2-dihydropyridin-2-one, reference compound]
[2]
  change in crystal form during mixing operation (powder X-ray diffraction): underwent a change in crystal form
[3]
  static potential of the powder (chargeability): 70-100 V

## N#Cc1ccccc1-c1cc(-c2ccccn2)cn(-c2ccccc2)c1=O [Example 6, 3-(2-cyanophenyl)-5-(2-pyridyl)-1-phenyl-1,2-dihydropyridin-2-one]
[2]
  change in crystal form during mixing operation (powder X-ray diffraction): no change in crystal form

## N#Cc1ccccc1-c1cc(-c2ccccn2)cn(-c2ccccc2)c1=O [Example 7, 3-(2-cyanophenyl)-5-(2-pyridyl)-1-phenyl-1,2-dihydropyridin-2-one]
[2]
  change in crystal form during mixing operation (powder X-ray diffraction): no change in crystal form

## N#Cc1ccccc1-c1cc(-c2ccccn2)cn(-c2ccccc2)c1=O.O [Example 5, 3-(2-cyanophenyl)-5-(2-pyridyl)-1-phenyl-1,2-dihydropyridin-2-one hydrate]
[4]
  Minimum Ignition Energy: 50 to 100 mJ
[5]
  temperature at which Hydrate crystal transforms to Anhydrous crystal form III: ≥ 60 °C
[2]
  change in crystal form during mixing operation (powder X-ray diffraction): no change in crystal form
[6]
  humidity under which crystals stay Hydrate crystal: ≥ 10 % RH
[6]; reversible
  humidity under which Hydrate crystal changes to Anhydrous crystal form III: ≤ 10 % RH
[3]
  static potential of the powder (chargeability): 0 V
[7]
  Lower Explosion Concentration Limit: 160-170 g/m^3
